Source: patent US6187572A, “Method of inactivation of viral and bacterial blood contaminants” (Baxter International Inc., priority 1993, dated 2001)
Where a name gives a salt, the structure may show the parent alone. Read-outs that look alike come from different tables or passages of the source.

What was measured:
platelets = format: cell-based
Method: The viral inactivation values and in vitro properties of platelets subjected to viral inactivation treatment using various derivatives of psoralen are summarized in Table 1.
2 mL PRP samples (plastic disposable petri dishes) containing 0.1 mg/mL
sensitizer were irradiated with UVA for 6 min. (1.19 J/cm^2). The
intensity of UVA radiation at sample position was measured at 3.3
mW/cm^2. The data was obtained from three separate experiments using
different platelet concentrates. Values are mean ± SD.

cell damage = assay: Cell damage by derivatives with free hydrogen atoms on the ammonium group; format: cell-based; conditions: words
.phi.6 phage [1] = assay: Viral inactivation in red blood cells (UVA, full units); format: cell-based; conditions: Erythrocyte, light or radiation study
Method: (§1) Units of packed red cells were transferred to Stericon red cell freezing bags and the hematocrits were adjusted to 60% with PBS. The samples were spiked with 5×10^6 PFU/ml .phi.6 phage and 0.3 mg/mL sensitizer 8B. The contents of the bag were exposed to UVA light from top (3.6 mW/cm^2) and bottom (3.4 mW/cm^2) for 6 hours (151.2 J/cm^2). The samples were mixed continuously during UVA exposure on an orbital shaker. The final viral titre in the sample was determined by the plaque method. In vitro biochemical and biophysical properties of treated red cells were monitored for 7 days following the treatment.
(§2) Viral inactivation treatment was carried out in packed red cells (full
(§3) units, 60% Hct.) containing model virus (.phi.6 phage) and 8B sensitizer
(§4) (0.3 mg/mL) in a Sericon red cells freezing bag (altered). The bags were
(§5) irradiated from top (3.6 mW/cm^2) and bottom (3.4 mW/cm^2) in a
(§6) home made reactor for 6 hours (151.2 J/cm^2). The sample was mixed
(§7) continuously during UVA exposure on a orbital shaker.

[2] = system: single unit platelet concentrates; assay: Platelet in vitro properties in single unit platelet concentrates after UVA treatment; format: cell-based; parameters: ADP Agg. / Collagen / HSR: unit not given here; conditions: for ADP Agg. / Cell count / Collagen / HSR / Morphology / pH: Treated, 0.03 mg/mL, UVA 10 min
Method: (§8) Single unit platelet concentrates were obtained 24 hours after collection from certified blood banks. The platelets were subjected to soft spin to remove residual RBC and about 6 logs of .phi.6 phage and sensitizer 8B were added in PBS solution to obtain 0.03 mg/ml final sensitizer concentration. The samples were transferred to Stericonpolyolefin bag (which transmits 60% of UVA light) and irradiated from top (3.6 mW/cm^2)and bottom (3.4 mW/cm^2) in a home made reactor for 10 min. The bags were continuously mixed on extended glass platform attached to orbital shaker. The viral inactivation values and in vitro properties of platelet concentrates were monitored for 2 days after the treatment.
(§9) Single units of platelet concentrates in Cryocyte ™ bag containing 0.03
(§10) mg/mL #8B sensitizer (Appendix I) were irradiated from top (3.6
(§11) mW/cm^2) and bottom (3.4 mW/cm^2) using UVA radiation in a home
(§12) made reactor for 10 min (4.2 J/cm^2). After the treatment platelet
(§13) concentrates were transferred into original platelet containers and stored
(§14) in a platelet incubator for indicated period of time.
(§15) Platelet viability assays were carried out immediately after treatment and
(§16) reduction in treated samples was determined by the plaque assay. The
(§17) values are mean ±S.D (n = 3)

[3] = system: Salmonella typhimurium TA1535; assay: Ames mutagenicity, plate incorporation assay; format: cell-based
Method: (§18) The standard Ames mutagenicity test using salmonella mutants was performed on brominated sensitizer 8B at 0.6 mg/ml.

[4] = system: Salmonella typhimurium TA1537; assay: Ames mutagenicity, plate incorporation assay; format: cell-based
Method: as §18

[5] = system: Salmonella typhimurium TA98; assay: Ames mutagenicity, plate incorporation assay; format: cell-based
Method: as §18

[6] = system: Salmonella typhimurium TA1538; assay: Ames mutagenicity, plate incorporation assay; format: cell-based
Method: as §18

[7] = system: Salmonella typhimurium TA100; assay: Ames mutagenicity, plate incorporation assay; format: cell-based
Method: as §18

.phi.6 phage [8] = assay: Viral inactivation in single unit platelet concentrates (UVA); format: cell-based; conditions: light or radiation study, 10 min
Method: as §8, §9, §10, §11, §12, §13, §14, §15
following 24 & 48 hours storage in a platelet incubator. The viral
as §16, §17

salmonella mutants = assay: Ames mutagenicity, overall; format: cell-based, Salmonella typhimurium; conditions: 0.6 mg/ml; words
Method: as §18

λ = assay: Inactivation of viruses in human plasma and bovine serum with UV activation; format: cell-based, λ phage; conditions: light or radiation study, 0.5 h, Fetal bovine serum, 0.03 mg/ml, UVA 30 min (8.4 J/cm^2), read-out: Viral Reduction (log)
Method: Viral inactivation in FBS was carried out in 100 ml serum samples in 225 cm^2 tissue culture flask in the presence of sensitizer 8B (0.03 mg/ml). The sample was exposed to UVA light from top (3.6 mW/cm^2) and bottom (3.4 mW/cm^2) while continuously mixing on an orbital shaker for 30 min. (8.4 J/cm^2). Human plasma was irradiated in a Pyrex glass photolysis cell in the presence of sensitizer 8 (0.1 mg/ml) for 5 min. Inactivation of various bacteriophages were carried out using brominated psoralens in combination with UVA light. The results in Table 5 clearly indicate that 5-7 logs of viral reduction was obtained with various phage (enveloped and non-enveloped) in human plasma fractions and fetal bovine serum products.

.phi.6 phage [9] = assay: Comparison of viral inactivation efficiencies of brominated and non-brominated sensitizers in platelets (UVA); format: cell-based; conditions: 8B versus 8C, 0.1 mg/ml, UVA 3.3 mW/cm^2
Method: To test the viral inactivation efficiency of brominated sensitizers, platelet preparations (2 ml, PRP) were spiked with .phi.6 phage and brominated psoralen (8B) and non-brominated psoralen(8C) were added to obtain final sensitizer concentration of 0.1 mg/ml. The samples were exposed to UVA light in a home made reactor consisting of 4 UVA lamps for the indicated time periods. The petri dishes containing samples were mixed on an orbital shaker during UVA exposure. The UVA light intensity at the sample position was measured at 3.3 mW/cm^2. The residual viral titre after each time point was measured by plaque method. The viral reduction values are illustrated in FIG. 26.

red cells = assay: Red cell in vitro properties after viral inactivation treatment (UVA); format: cell-based; parameters: MCV / MCH / MCHC: unit not given here; conditions: for % Hemichrome / % Met Hb. / % Oxy Hb. / MCH / MCHC / MCV / DI Max % control: Treated; for % Hemichrome / % Met Hb. / % Oxy Hb. / MCH / MCHC / MCV: UVA 6 hours; for DI Max % control: ektacytometry
Method: as §1
DI Max, Deformability index by ektacytometry
as §2, §3, §4, §5, §6, §7
Data was collected from 3 separate experiments and the values are mean

Cc1oc2c(C)c3oc(=O)cc(C)c3cc2c1CN [AMT, 4'-aminomethyl-4,5',8-trimethylpsoralen]
hypotonic shock response (HSR) and ADP aggregation response relative to the control (platelets): substantial reduction | cell damage (cell damage): unacceptable levels of cell damage

CC[N+](CC)(CC)CCCOc1c2occc2c(Br)c2ccc(=O)oc12 [Sensitizer #8B, 5-Bromo-8 (γ-Triethylaminopropyloxy) Psoralen Hydrochloride]
log reduction at 300 µg/mL (.phi.6 phage [1]; 6 h, read-out: viral reduction): > 6.6 | log reduction at 300 µg/mL (.phi.6 phage [1]; Treated, Day 1, 0.3 mg/mL, UVA 6 hours (151.2 J/cm^2), read-out: Viral Reduction (log)): 6.6 ± 0.1 | platelet in vitro properties ([2]; Example 15 text, words): excellent retention of platelet in vitro properties | ADP Agg. ([2]; 0 Hour): 43 ± 12 | Cell count ([2]; 0 Hour): 474 ± 20 | Collagen ([2]; 0 Hour): 72 ± 3 | HSR ([2]; 0 Hour): 65 ± 8 | Morphology ([2]; 0 Hour): 233 ± 17 | pH ([2]; 0 Hour): 7.2 ± 0.1 | ADP Agg. ([2]; 24 Hours): 34 ± 19 | Cell count ([2]; 24 Hours): 499 ± 50 | Collagen ([2]; 24 Hours): 65 ± 3 | HSR ([2]; 24 Hours): 65 ± 6 | Morphology ([2]; 24 Hours): 230 ± 19 | pH ([2]; 24 Hours): 7.1 ± 0.2 | Collagen ([2]; 43 Hours): 60 ± 4 | pH ([2]; 43 Hours): 6.8 ± 0.1 | HSR ([2]; 48 Hours): 70 ± 6 | Number of Revertan Colonies ([3]; TA1535, with S-9, average of duplicate plates): 197 | Number of Revertan Colonies ([3]; TA1535, without S-9, average of duplicate plates): 173 | Number of Revertan Colonies ([4]; TA1537, with S-9, average of duplicate plates): 26 | Number of Revertan Colonies ([4]; TA1537, without S-9, average of duplicate plates): 36 | Number of Revertan Colonies ([5]; TA98, with S-9, average of duplicate plates): 83 | Number of Revertan Colonies ([5]; TA98, without S-9, average of duplicate plates): 55 | Number of Revertan Colonies ([6]; TA1538, with S-9, average of duplicate plates): 25 | Number of Revertan Colonies ([6]; TA1538, without S-9, average of duplicate plates): 22 | Number of Revertan Colonies ([7]; TA100, with S-9, average of duplicate plates): 245 | Number of Revertan Colonies ([7]; TA100, without S-9, average of duplicate plates): 164 | log reduction at 30 µg/mL (.phi.6 phage [8]; Treated, 0 Hour, 0.03 mg/mL, UVA 10 min (4.2 J/cm^2), n = 4, read-out: V.I): 5.3 ± 0.2 | log reduction at 30 µg/mL (.phi.6 phage [8]; read-out: viral reduction): > 5.3 | mutagenicity (salmonella mutants): non-mutagenic | log reduction at 30 µg/mL (λ): 6.6 | improvement in the level of viral inactivation (brominated versus non-brominated) (.phi.6 phage [9]): ≤ 400 fold | in vitro biochemical and biophysical properties of red cells (red cells; Example 16 text, words): without any significant alterations | % Hemichrome (red cells; Day 1, 0.3 mg/mL): 1.9 ± 1.5% | % Met Hb. (red cells; Day 1, 0.3 mg/mL): 2.9 ± 1.5% | % Oxy Hb. (red cells; Day 1, 0.3 mg/mL): 95.2 ± 0.1% | MCH (red cells; Day 1, 0.3 mg/mL): 30.9 ± 0.1 | MCHC (red cells; Day 1, 0.3 mg/mL): 34.9 ± 0.4 | MCV (red cells; Day 1, 0.3 mg/mL): 88.8 ± 2.5 | DI Max % control (red cells; Day 1, 0.3 mg/mL): 97.4 ± 3.6 % control | % Hemichrome (red cells; Day 2, 0.3 mg/mL): 0.6 ± 0.9% | % Met Hb. (red cells; Day 2, 0.3 mg/mL): 1.7 ± 1.7% | % Oxy Hb. (red cells; Day 2, 0.3 mg/mL): 97.7 ± 1.7% | MCH (red cells; Day 2, 0.3 mg/mL): 30.3 ± 0.4 | MCHC (red cells; Day 2, 0.3 mg/mL): 33.8 ± 0.9 | MCV (red cells; Day 2, 0.3 mg/mL): 89.8 ± 1.7 | DI Max % control (red cells; Day 2, 0.3 mg/mL): 99.6 ± 3.8 % control | % Hemichrome (red cells; Day 7, 0.3 mg/mL): 0.2 ± 0.2% | % Met Hb. (red cells; Day 7, 0.3 mg/mL): 1.4 ± 1.2% | % Oxy Hb. (red cells; Day 7, 0.3 mg/mL): 98.5 ± 1.0% | MCH (red cells; Day 7, 0.3 mg/mL): 30.1 ± 0.8 | MCHC (red cells; Day 7, 0.3 mg/mL): 33.6 ± 1.6 | MCV (red cells; Day 7, 0.3 mg/mL): 89.8 ± 1.7 | DI Max % control (red cells; Day 7, 0.3 mg/mL): 99.0 ± 5.9 % control
